In PubChem BioAssay (NCI):
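The compound was tested at five concentrations on cells cultured in 96-well plates, with a 48-hour exposure period. GI50 marks 50% less growth. At the TGI there is no net growth.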

How the values were obtained:
Assay in all cases: NCI anticancer screen, dose series, 48 h
SF-539 CNS = system: SF-539 CNS
T-47D breast = system: T-47D breast
UACC-257 melanoma = system: UACC-257 melanoma
IGROV1 ovarian = system: IGROV1 ovarian
UO-31 renal = system: UO-31 renal
SK-MEL-2 melanoma = system: SK-MEL-2 melanoma
HS 578T breast = system: HS 578T breast
SK-MEL-28 melanoma = system: SK-MEL-28 melanoma
NCI-H23 lung = system: NCI-H23 lung
SF-268 CNS = system: SF-268 CNS
MDA-MB-231 breast = system: MDA-MB-231 breast
TK-10 renal = system: TK-10 renal
SR leukemia = system: SR leukemia
U251 CNS = system: U251 CNS
BT-549 breast = system: BT-549 breast
DU-145 prostate = system: DU-145 prostate
RXF 393 renal = system: RXF 393 renal
KM12 colon = system: KM12 colon
K-562 leukemia = system: K-562 leukemia
A549 NSCLC = system: A549 NSCLC
HOP-92 NSCLC = system: HOP-92 NSCLC
NCI/ADR-RES ovarian = system: NCI/ADR-RES ovarian
EKVX NSCLC = system: EKVX NSCLC
HCT-15 colon = system: HCT-15 colon
MDA-MB-435 = system: MDA-MB-435
SK-MEL-5 melanoma = system: SK-MEL-5 melanoma
SK-OV-3 ovarian = system: SK-OV-3 ovarian
CAKI-1 renal = system: CAKI-1 renal
SW-620 colon = system: SW-620 colon
OVCAR-5 ovarian = system: OVCAR-5 ovarian
HL-60(TB) leukemia = system: HL-60(TB) leukemia
UACC-62 melanoma = system: UACC-62 melanoma
CCRF-CEM leukemia = system: CCRF-CEM leukemia
OVCAR-4 ovarian = system: OVCAR-4 ovarian
A498 renal = system: A498 renal
NCI-H226 lung = system: NCI-H226 lung
ACHN renal = system: ACHN renal
LOX IMVI melanoma = system: LOX IMVI melanoma
MCF7 breast = system: MCF7 breast
SN12C renal = system: SN12C renal
HCC-2998 colon = system: HCC-2998 colon
COLO 205 colon = system: COLO 205 colon
MOLT-4 leukemia = system: MOLT-4 leukemia
MALME-3M melanoma = system: MALME-3M melanoma
SNB-75 CNS = system: SNB-75 CNS
OVCAR-8 ovarian = system: OVCAR-8 ovarian
NCI-H460 lung = system: NCI-H460 lung
HT29 colon = system: HT29 colon
OVCAR-3 ovarian = system: OVCAR-3 ovarian
SNB-19 CNS = system: SNB-19 CNS

Question: With `COc1cc2c(cc1OCCCOc1ccc(-c3cc4ccccc4c4ccccc34)cc1)N=C[C@@H]1CCCN1C2=O` as the compound, how does the GI50 (SF-539 CNS) read?
Answer: 1580 nM

Question: What about the TGI (SF-539 CNS) of the same compound?
Answer: 2920 nM

Question: And the GI50 (T-47D breast)?
Answer: 88.7 nM

Question: What about the TGI (T-47D breast) of the same compound?
Answer: 598 nM

Question: And the GI50 (UACC-257 melanoma)?
Answer: 1570 nM

Question: And the TGI (UACC-257 melanoma)?
Answer: 3100 nM

Question: What about the GI50 (IGROV1 ovarian) of the same compound?
Answer: 122 nM

Question: And the TGI (IGROV1 ovarian)?
Answer: 288 nM

Question: What about the GI50 (UO-31 renal) of the same compound?
Answer: 169 nM

Question: And the TGI (UO-31 renal)?
Answer: 593 nM

Question: And the GI50 (SK-MEL-2 melanoma)?
Answer: 46.7 nM

Question: And the TGI (SK-MEL-2 melanoma)?
Answer: 521 nM

Question: And the GI50 (HS 578T breast)?
Answer: 645 nM

Question: What about the TGI (HS 578T breast) of the same compound?
Answer: 3110 nM

Question: What about the GI50 (SK-MEL-28 melanoma) of the same compound?
Answer: 555 nM

Question: And the TGI (SK-MEL-28 melanoma)?
Answer: 1380 nM

Question: And the GI50 (NCI-H23 lung)?
Answer: 1410 nM

Question: What about the TGI (NCI-H23 lung) of the same compound?
Answer: 2740 nM

Question: What about the GI50 (SF-268 CNS) of the same compound?
Answer: 860 nM

Question: And the TGI (SF-268 CNS)?
Answer: 2080 nM

Question: And the GI50 (MDA-MB-231 breast)?
Answer: 291 nM

Question: What about the TGI (MDA-MB-231 breast) of the same compound?
Answer: 1270 nM

Question: And the GI50 (TK-10 renal)?
Answer: 646 nM

Question: And the TGI (TK-10 renal)?
Answer: 1790 nM

Question: What about the GI50 (SR leukemia) of the same compound?
Answer: 222 nM

Question: And the TGI (SR leukemia)?
Answer: 717 nM

Question: And the GI50 (U251 CNS)?
Answer: 910 nM

Question: And the TGI (U251 CNS)?
Answer: 2110 nM

Question: What about the GI50 (BT-549 breast) of the same compound?
Answer: 278 nM

Question: And the TGI (BT-549 breast)?
Answer: 2050 nM

Question: And the GI50 (DU-145 prostate)?
Answer: 385 nM

Question: And the TGI (DU-145 prostate)?
Answer: 1420 nM

Question: And the GI50 (RXF 393 renal)?
Answer: 240 nM

Question: What about the TGI (RXF 393 renal) of the same compound?
Answer: 624 nM

Question: And the GI50 (KM12 colon)?
Answer: 787 nM

Question: And the TGI (KM12 colon)?
Answer: 2060 nM

Question: What about the TGI (K-562 leukemia) of the same compound?
Answer: > 100000 nM

Question: And the GI50 (A549 NSCLC)?
Answer: 724 nM

Question: What about the TGI (A549 NSCLC) of the same compound?
Answer: 2010 nM

Question: What about the GI50 (HOP-92 NSCLC) of the same compound?
Answer: 334 nM

Question: What about the TGI (HOP-92 NSCLC) of the same compound?
Answer: 1530 nM

Question: And the GI50 (NCI/ADR-RES ovarian)?
Answer: 716 nM

Question: And the TGI (NCI/ADR-RES ovarian)?
Answer: 1980 nM

Question: And the GI50 (EKVX NSCLC)?
Answer: 1100 nM

Question: What about the TGI (EKVX NSCLC) of the same compound?
Answer: 2300 nM

Question: And the GI50 (HCT-15 colon)?
Answer: 896 nM

Question: What about the TGI (HCT-15 colon) of the same compound?
Answer: 2260 nM

Question: What about the GI50 (MDA-MB-435) of the same compound?
Answer: 343 nM

Question: What about the TGI (MDA-MB-435) of the same compound?
Answer: 1310 nM

Question: And the GI50 (SK-MEL-5 melanoma)?
Answer: 1240 nM

Question: And the TGI (SK-MEL-5 melanoma)?
Answer: 2490 nM

Question: What about the GI50 (SK-OV-3 ovarian) of the same compound?
Answer: 1600 nM

Question: What about the TGI (SK-OV-3 ovarian) of the same compound?
Answer: 3260 nM

Question: What about the GI50 (CAKI-1 renal) of the same compound?
Answer: 535 nM

Question: What about the TGI (CAKI-1 renal) of the same compound?
Answer: 1650 nM

Question: What about the GI50 (SW-620 colon) of the same compound?
Answer: 513 nM

Question: What about the TGI (SW-620 colon) of the same compound?
Answer: 1860 nM

Question: What about the GI50 (OVCAR-5 ovarian) of the same compound?
Answer: 487 nM

Question: And the TGI (OVCAR-5 ovarian)?
Answer: 995 nM

Question: What about the GI50 (HL-60(TB) leukemia) of the same compound?
Answer: 171 nM

Question: What about the TGI (HL-60(TB) leukemia) of the same compound?
Answer: 393 nM

Question: What about the GI50 (UACC-62 melanoma) of the same compound?
Answer: 632 nM

Question: And the TGI (UACC-62 melanoma)?
Answer: 2090 nM

Question: And the GI50 (CCRF-CEM leukemia)?
Answer: 237 nM

Question: And the GI50 (OVCAR-4 ovarian)?
Answer: 815 nM

Question: And the TGI (OVCAR-4 ovarian)?
Answer: 2210 nM

Question: What about the GI50 (A498 renal) of the same compound?
Answer: 894 nM

Question: What about the TGI (A498 renal) of the same compound?
Answer: 2160 nM

Question: What about the GI50 (NCI-H226 lung) of the same compound?
Answer: 1280 nM

Question: What about the TGI (NCI-H226 lung) of the same compound?
Answer: 2730 nM

Question: What about the GI50 (ACHN renal) of the same compound?
Answer: 1070 nM

Question: What about the TGI (ACHN renal) of the same compound?
Answer: 2300 nM

Question: What about the GI50 (LOX IMVI melanoma) of the same compound?
Answer: 1020 nM

Question: And the TGI (LOX IMVI melanoma)?
Answer: 2190 nM

Question: And the GI50 (MCF7 breast)?
Answer: 172 nM

Question: What about the TGI (MCF7 breast) of the same compound?
Answer: 971 nM

Question: And the GI50 (SN12C renal)?
Answer: 518 nM

Question: And the TGI (SN12C renal)?
Answer: 1840 nM

Question: What about the GI50 (HCC-2998 colon) of the same compound?
Answer: 1210 nM

Question: And the TGI (HCC-2998 colon)?
Answer: 2450 nM

Question: And the GI50 (COLO 205 colon)?
Answer: 1190 nM

Question: What about the TGI (COLO 205 colon) of the same compound?
Answer: 2440 nM

Question: What about the GI50 (MOLT-4 leukemia) of the same compound?
Answer: 186 nM

Question: And the TGI (MOLT-4 leukemia)?
Answer: 432 nM

Question: What about the GI50 (MALME-3M melanoma) of the same compound?
Answer: 1400 nM

Question: And the TGI (MALME-3M melanoma)?
Answer: 2740 nM

Question: What about the GI50 (SNB-75 CNS) of the same compound?
Answer: 261 nM

Question: What about the TGI (SNB-75 CNS) of the same compound?
Answer: 1410 nM

Question: What about the GI50 (OVCAR-8 ovarian) of the same compound?
Answer: 425 nM

Question: What about the TGI (OVCAR-8 ovarian) of the same compound?
Answer: 1980 nM

Question: And the GI50 (NCI-H460 lung)?
Answer: 1040 nM

Question: What about the TGI (NCI-H460 lung) of the same compound?
Answer: 2210 nM

Question: What about the GI50 (HT29 colon) of the same compound?
Answer: 899 nM

Question: What about the TGI (HT29 colon) of the same compound?
Answer: 2110 nM

Question: What about the GI50 (OVCAR-3 ovarian) of the same compound?
Answer: 252 nM

Question: And the TGI (OVCAR-3 ovarian)?
Answer: 786 nM

Question: And the GI50 (SNB-19 CNS)?
Answer: 1160 nM

Question: And the TGI (SNB-19 CNS)?
Answer: 2370 nM
